Assay [1] concerns the target human emopamil binding protein and human 7-dehydrocholesterol reductase co-expressing cell membrane (Homo sapiens (Human), UniProt Q15125). The experiment in a line: hEBP-DHCR7 radioligand filtration binding assay with [3H]-Compound 118A*. The note with it: radioligand [3H]-Compound 118A*; HEK293 membrane co-expressing hEBP and DHCR7. In outline:
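HEK293 membranes transiently co-expressing hEBP and hDHCR7 (10 μg/well) were incubated with [3H]-Compound 118A* (added at 25 nM) and compounds (8 doses, final 0.06–5000 nM, n=2) for 3 h at 22 °C. Bound radioactivity was read after PEI-treated GF/B filtration. IC50 came from a Hill fit of % inhibition and was converted to Ki.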

Assay [2] has as its system zymostenol accumulation in EpiSC-derived OPCs (EBP). The assay can be described thus: GC/MS-based sterol profiling, zymostenol accumulation. The note with it: Mus musculus, 24 h, 8 doses from 0.15 nM to 333 nM, read-out: mZymo GCMS EC50. The class given is cell-based, mouse. In a few lines:
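EpiSC-derived mouse OPCs plated at 100,000 cells/well in N2B27 without growth factors and treated 24 h. Sterols extracted, silylated with BSTFA and measured by GC/MS (EI, full scan), quantified against cholesterol-d7. Zymostenol normalized to levels after 24 h with 100 nM positive control reference.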

A further assay relates to EpiSC-derived OPCs. The assay can be described thus: In vitro phenotypic screening of OPCs, MBP high-content imaging. It is filed as cell-based, mouse. Particulars: Mus musculus, 72 h, percentage of MBP+ oligodendrocytes; 3 days; 0.5 nM to 1000 nM; read-out: mOPC EC50. In outline:
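Mouse EpiSC-derived OPCs seeded without growth factors and exposed 3 days at 37° C. to 8-point doses, 1000 nM to 0.5 nM final. Fixed cells stained for MBP and DAPI; high-content imaging gave percentage MBP+ oligodendrocytes, with EC50 from Hill-equation fit.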

For 29 molecules, Ki and EC50 results are on record in patent publication US20240400579A1, “SPIROCYCLIC MODULATORS OF CHOLESTEROL BIOSYNTHESIS AND THEIR USE FOR PROMOTING REMYELINATION” (GENENTECH, INC., priority 2021, published 2024).

The structures appear in SMILES notation.

Sequence of human emopamil binding protein and human 7-dehydrocholesterol reductase co-expressing cell membrane (Q15125 whole entry): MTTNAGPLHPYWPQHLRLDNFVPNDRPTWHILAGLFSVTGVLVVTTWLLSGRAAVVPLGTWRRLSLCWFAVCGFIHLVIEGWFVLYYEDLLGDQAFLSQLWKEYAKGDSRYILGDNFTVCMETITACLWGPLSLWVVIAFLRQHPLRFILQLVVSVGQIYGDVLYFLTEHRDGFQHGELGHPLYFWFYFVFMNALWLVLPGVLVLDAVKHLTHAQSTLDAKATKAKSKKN

Turning to `C[C@@H](Cc1ccc(C(F)F)cc1)CN1CCC2(C1)CS(=O)(=O)C2` (single isomer, unassigned) [Compound 128A], the Ki in assay [1] is 29.6 nM. Further, the EC50 in assay [2] was found to be 23 nM; in the assay with EpiSC-derived OPCs it was 370 nM.

Consider `O=S1(=O)CC2(CCN(CC3(Cc4ccc(C(F)(F)F)nc4)CC3)C2)C1` [Example 157, 6-((1-((6-(Trifluoromethyl)pyridin-3-yl)methyl)cyclopropyl)methyl)-2-thia-6-azaspiro[3.4]octane 2,2-dioxide], for which the Ki in assay [1] was determined as 17.2 nM. Moreover, the EC50 in assay [2] amounted to 12 nM; in the assay with EpiSC-derived OPCs, 9.4 nM.

In assay [1], `CCC(C)(C)c1ccc(CC(C)CN2CCC3(C2)CS(=O)(=O)C3)cc1` (racemic) [Compound 107, 6-(2-Methyl-3-(4-(tert-pentyl)phenyl)propyl)-2-thia-6-azaspiro[3.4]octane 2,2-dioxide] returned a Ki of 10.3 nM. For the same molecule, the EC50 turned out to be 9.5 nM in assay [2] and 22 nM in the assay with EpiSC-derived OPCs.

Regarding `CC(C)(CN1CCC2(C1)CS(=O)(=O)C2)Oc1cccc(C(F)(F)F)c1` [Example 130, 6-(2-Methyl-2-(3-(trifluoromethyl)phenoxy)propyl)-2-thia-6-azaspiro[3.4]octane-2,2-dioxide], affinity in assay [1] was put at a Ki of 13.2 nM. Besides, the EC50 was 2.9 nM in assay [2] and 10 nM in the assay with EpiSC-derived OPCs.

Regarding `C[C@@H](Cc1ccc(C(F)(F)F)nc1)CN1CCC2(C1)CS(=O)(=O)C2` (single isomer, unassigned) [118A*], in assay [1], the inhibition constant (Ki) worked out at 22.1 nM. Also, the EC50 was found to be 2.4 nM in assay [2] and 8.5 nM in the assay on EpiSC-derived OPCs.

In assay [1], `C[C@@H](CN1CCC2(CC1)CS(=O)(=O)C2)Oc1ccc(F)c(F)c1` (single isomer, unassigned) [221A*] displayed a Ki of 25.5 nM. In addition, the EC50 in assay [2] worked out at 1.6 nM; in the assay with EpiSC-derived OPCs, 4.9 nM.

`CC(C)(CN1CCC2(CC1)CS(=O)(=O)C2)Oc1ccc(C(F)(F)F)cc1` [Example 138, 7-(2-Methyl-2-(4-(trifluoromethyl)phenoxy)propyl)-2-thia-7-azaspiro[3.5]nonane 2,2-dioxide] returned a Ki in assay [1] of 5.04 nM. Further, the EC50 in assay [2] was 1 nM; in the assay with EpiSC-derived OPCs, 2.3 nM.

In assay [1], `CC(Cc1ccc(C2CCC2)cc1)CN1CCC2(C1)CS(=O)(=O)C2` (racemic) [Compound 109A, 6-(3-(4-cyclobutylphenyl)-2-methylpropyl)-2-thia-6-azaspiro[3.4]octane 2,2-dioxide] yielded a Ki of 12.5 nM. For the same molecule, the concentration for a half-maximal effect (EC50) was found to be 1.6 nM in assay [2] and 1.8 nM in the assay with EpiSC-derived OPCs.

`C[C@@H](Cc1ccc(C(F)(F)F)cc1)CN1CCC2(C1)CS(=O)(=O)C2` (single isomer, unassigned) [114A*] returned a Ki in assay [1] of 18.3 nM. The figures for the EC50 (in assay [2]; in the assay on EpiSC-derived OPCs) were 0.37 nM and 2.4 nM, respectively.

In turn, `CC(C)(CN1CCC2(C1)CS(=O)(=O)C2)Oc1ccc(C(F)(F)F)nc1` [Example 135, 6-(2-Methyl-2-((6-(trifluoromethyl)pyridin-3-yl)oxy)propyl)-2-thia-6-azaspiro[3.4]octane-2,2-dioxide] came in with a Ki in assay [1] of 39.6 nM. The EC50 in assay [2] worked out at 32 nM; in the assay on EpiSC-derived OPCs it was 140 nM.

`CC(C)(CN1CCC2(C1)CS(=O)(=O)C2)Oc1ccc(OC(F)(F)F)cc1` [Example 136, 6-(2-Methyl-2-(4-(trifluoromethoxy)phenoxy)propyl)-2-thia-6-azaspiro[3.4]octane 2,2-dioxide] gave a Ki in assay [1] of 14.2 nM. For the same molecule, the EC50 in assay [2] turned out to be 3.6 nM; in the assay on EpiSC-derived OPCs, 12 nM.

On to `CC(C)(Cc1ccc(C(F)(F)F)nc1)CN1CC[C@@]2(CCS(=O)(=O)C2)C1` (single isomer, unassigned) [Compound 148B], for which the Ki in assay [1] came out at 28.6 nM. In addition, the EC50 stood at 7.2 nM in assay [2] and 73 nM with EpiSC-derived OPCs.

For `C[C@@H](Cc1ccnc(C(F)(F)F)c1)CN1CCC2(C1)CS(=O)(=O)C2` (single isomer, unassigned) [Compound 126A], affinity in assay [1] was put at a Ki of 47.4 nM. Besides, the EC50 in assay [2] was 3.8 nM; in the assay on EpiSC-derived OPCs, 10 nM.

In the case of `C[C@H](Cc1ccnc(C(F)(F)F)c1)CN1CCC2(C1)CS(=O)(=O)C2` (single isomer, unassigned) [Compound 126B], affinity in assay [1] was put at a Ki of 67.6 nM. Besides, the EC50 in assay [2] was 14 nM; in the assay with EpiSC-derived OPCs, 230 nM.

Molecule `C[C@H](Cc1ccc(C(F)(F)F)cc1)CN1CCC2(C1)CS(=O)(=O)C2` (single isomer, unassigned) [114B*] had an inhibition constant (Ki) in assay [1] of 5.85 nM. In addition, the results for the EC50 (in assay [2]; in the assay on EpiSC-derived OPCs) were 0.82 nM and 0.72 nM, respectively.

As to `CC(C)(Cc1ccc(C2CCC(F)(F)CC2)c(Cl)c1)CN1CCC2(C1)CS(=O)(=O)C2` [Example 139, 6-(3-(3-Chloro-4-(4,4-difluorocyclohexyl)phenyl)-2,2-dimethylpropyl)-2-thia-6-azaspiro[3.4]octane 2,2-dioxide], the Ki in assay [1] came to 9.23 nM. Besides, the EC50 turned out to be 1.6 nM in assay [2] and 0.46 nM in the assay on EpiSC-derived OPCs.

Turning to `O=S1(=O)CC2(CCN(CCOc3ccc(C(F)(F)F)cc3)C2)C1` [Compound 112, 6-(2-(4-(Trifluoromethyl)phenoxy)ethyl)-2-thia-6-azaspiro[3.4]octane-2,2-dioxide], the affinity in assay [1] corresponds to a Ki of 13.5 nM. Moreover, the 50% effective concentration (EC50) in assay [2] amounted to 1.3 nM; with EpiSC-derived OPCs, 33 nM.

In assay [1], `CC(C)(CN1CCC2(C1)CS(=O)(=O)C2)Oc1ccc(C2CCC2)cc1` [Example 129, 6-(2-(4-Cyclobutylphenoxy)-2-methylpropyl)-2-thia-6-azaspiro[3.4]octane-2,2-dioxide] yielded a Ki of 11.8 nM. Further, the EC50 amounted to 19 nM in assay [2] and 190 nM with EpiSC-derived OPCs.

The molecule `CC(C)(CN1CCC2(C1)CS(=O)(=O)C2)Oc1cnc(C(F)(F)F)nc1` [Example 144, 6-(2-Methyl-2-((2-(trifluoromethyl)pyrimidin-5-yl)oxy)propyl)-2-thia-6-azaspiro[3.4]octane-2,2-dioxide] returned a Ki in assay [1] of 96.6 nM. For the same molecule, the EC50 in assay [2] was determined as 80 nM; with EpiSC-derived OPCs, 390 nM.

Turning to `C[C@@H](Cc1cnc(C(F)(F)F)nc1)CN1CCC2(C1)CS(=O)(=O)C2` (single isomer, unassigned) [Compound 145A], affinity in assay [1] was put at a Ki of 69.1 nM. Further, the EC50 came out at 8.1 nM in assay [2] and 69 nM with EpiSC-derived OPCs.

`O=S1(=O)CC2(CCN(CCOc3ccc(C(F)(F)F)nc3)CC2)C1` [Compound 230, 7-(2-((6-(Trifluoromethyl)pyridin-3-yl)oxy)ethyl)-2-thia-7-azaspiro[3.5]nonane 2,2-dioxide] returned a Ki in assay [1] of 749 nM. Moreover, the EC50 in assay [2] turned out to be 11 nM; in the assay on EpiSC-derived OPCs, 22 nM.

Turning to `CC(C)(CN1CC[C@]2(CCS(=O)(=O)C2)C1)Oc1ccc(C(F)(F)F)cc1` (single isomer, unassigned) [Compound 141B], the Ki in assay [1] was found to be 58.4 nM. Also, the EC50 in assay [2] was found to be 49 nM; in the assay with EpiSC-derived OPCs, 480 nM.

`O=S1(=O)CCC2(CC1)CN(CCOc1ccc(C(F)(F)F)cc1)C2` [Example 201, 2-(2-(4-(Trifluoromethyl)phenoxy)ethyl)-7-thia-2-azaspiro[3.5]nonane 7,7-dioxide]: affinity in assay [1] was put at a Ki of 25.7 nM. For the same molecule, the half-maximal effective concentration (EC50) in assay [2] was determined as 3.2 nM; in the assay on EpiSC-derived OPCs, 5.5 nM.

As to `CC(C)(CN1CC[C@@]2(CCS(=O)(=O)C2)C1)Oc1ccc(C(F)(F)F)cc1` (single isomer, unassigned) [Compound 141A], in assay [1], the affinity corresponds to a Ki of 25.6 nM. Further, the EC50 in assay [2] is 5.5 nM; in the assay with EpiSC-derived OPCs, 21 nM.

With `COC(Cc1ccc(C(F)(F)F)cc1)CN1CCC2(C1)CS(=O)(=O)C2` (racemic) [Example 143, (S)-6-(2-Methoxy-3-(4-(trifluoromethyl)phenyl)propyl)-2-thia-6-azaspiro[3.4]octane 2,2-dioxide and (R)-6-(2-methoxy-3-(4-(trifluoromethyl)phenyl)propyl)-2-thia-6-azaspiro[3.4]octane 2,2-dioxide], the Ki in assay [1] was 12.6 nM. Further, the EC50 is 2.8 nM in assay [2] and 26 nM in the assay on EpiSC-derived OPCs.

Molecule `O=S1(=O)CC2(CCN(CC[C@H](F)c3ccc(C(F)(F)F)cc3)C2)C1` (single isomer, unassigned) [Compound 122B] had a Ki in assay [1] of 13.7 nM. The EC50 amounted to 1.2 nM in assay [2] and 2.1 nM in the assay with EpiSC-derived OPCs.

In turn, `C[C@H](Cc1cnc(C(F)(F)F)nc1)CN1CCC2(CC1)CS(=O)(=O)C2` (single isomer, unassigned) [215B*] returned a Ki in assay [1] of 136 nM. In addition, the values for the EC50 (in assay [2]; in the assay with EpiSC-derived OPCs) were 17 nM and 51 nM, respectively.

`CC(C)(Cc1ccc(C(F)(F)F)nc1)CN1CCC2(C1)CS(=O)(=O)C2` [Example 140, 6-(2,2-Dimethyl-3-(6-(trifluoromethyl)pyridin-3-yl)propyl)-2-thia-6-azaspiro[3.4]octane-2,2-dioxide] had a Ki in assay [1] of 19.9 nM. Besides, the EC50 in assay [2] was determined as 2.1 nM; with EpiSC-derived OPCs, 5 nM.

Turning to `CC(C)(CN1CCC2(C1)CS(=O)(=O)C2)Oc1cccc(OC(F)(F)F)c1` [Example 131, 6-(2-Methyl-2-(3-(trifluoromethoxy)phenoxy)propyl)-2-thia-6-azaspiro[3.4]octane 2,2-dioxide], the affinity in assay [1], expressed as Ki, was 118 nM. Also, the EC50 came out at 1.6 nM in assay [2] and 7.8 nM in the assay on EpiSC-derived OPCs.

For orientation: Ki means a dissociation constant, usually derived from enzyme kinetics or from competition with a known ligand. One may read the EC50 as the concentration giving half of the maximal effect.
